“Also recorded” adds a separate entry of the source.
Legend:
Format in all cases: in vivo
Aristotle bell pepper = settings: in vivo
How it was run: (§1)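 Florida-47 tomato and Aristotle bell pepper transplants in 2-gal pots with low-nutrient medium (pH 5.36), drip-irrigated; products at three rates in deionized water plus non-ionic surfactant sprayed on newly matured leaves at 3 and 7 WAT. Toxicity scored at 4 WAT (0=no damage, 10=death); foliar tissue analysed at 6 WAT; marketable fruit harvested 4 times (tomato).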

Florida-47 tomato = settings: in vivo
How it was run: as §1

Tygress tomato plants [1] = assay: Foliar nutrient concentration at 6 WAT, open-field tomato (Examples 7-10); settings: in vivo
How it was run: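 Open-field Florida trial, spring 2008: transplants at 4-true-leaf stage on drip-irrigated raised beds were foliar-sprayed at 3 and 5 WAT (BIOX-CM at 4 and 5 WAT) at 60 gal/acre with non-ionic surfactant. Most recent mature leaves were sampled at 6 WAT. Tomato fruit was USDA-graded and analysed for minerals.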

[2] = system: Patriot bell pepper plants; assay: Foliar nutrient concentration at 6 WAT, open-field bell pepper (Examples 7-10); settings: in vivo
Method: (§2) The following experiments were performed in open-field plots during the spring of 2008 at GCREC, Balm, University of Florida. Four products delivering Zn (BIOX-Z), Mn (BIOX-M), Cu (BIOX-Cu), and Fe (BIOX-Fe) were compared to other micronutrient supplement formulations in tomato and bell pepper plants.
(§3) The plot sizes for the tomato plants were 30-ft plots (15 plants per plot) and 15-ft plots were used for the bell pepper plants (30 plants per plot). Crop set-up, procedures and variables were as follows.
(§4) Transplants of ‘Tygress’ tomato plants and ‘Patriot’ bell pepper plants in the 4-true leaf stage (about 6 inches tall) were planted in raised beds in open-field plots. The cross-section of each raised bed was 28 inches wide at the top, 32 inches wide at the base, and 8 inches tall. Irrigation and non-micronutrient fertilizer were provided daily through two drip lines per bed (0.45 gal/100 ft bed/min) at recommended rates for tomato and bell pepper production in Florida. […] The height of the plants for each of the treatment groups was measured at 3 weeks after transplantation (WAT), just prior to treatment with the experimental foliar fertilizers.
(§5) All foliar fertilizers except BIOX-CM were applied to the various treatment groups at 3 weeks after transplantation (WAT) and again at 5 WAT. The BIOX-CM treatment was applied at 4 and 5 WAT. The working water volume was 60 gal/acre and a non-ionic surfactant (Ad-Spray 80) was added in the amount of 2 pints/100 gal water. All plots were sprayed with sprayers pressurized at 25 psi and the canopies of both crops were covered with the micronutrient solutions. Treated plots were isolated during foliar fertilizer application to avoid the cross-contamination of other treatments on adjoining plots.
(§6) Leaf samples were collected from the most recent mature leaves from each plant at 6 WAT (2 weeks after initial treatment). Foliar tissue analysis was performed by a commercial laboratory to determine the concentration of N, P, K, Mg, Ca, B, Zn, Mn, Fe, and Cu. Tomato marketable fruit weights were collected at 10 and 12 WAT, and the fruits were graded according to USDA standards. Pepper marketable fruit weights were determined beginning at 5 WAT over 5 weekly harvests. Fruit mineral analysis (N, P, K, Mg, Ca, B, Zn, Mn, Fe, and Cu) was performed on samples from the tomato harvest.
(§7) The experimental design was a randomized complete block design with 5 replications for each treatment. All comparison data were analyzed using a general linear model and the means of each treatment were separated with a Fisher's protected LSD test at the 5% significance level.

Tygress tomato plants [3] = assay: Marketable yield, open-field tomato (Examples 7-10); settings: in vivo
Method: as §2, §3, §4, §5, §6, §7

[4] = system: Patriot bell pepper plants; assay: Marketable yield, open-field bell pepper (Examples 7-10); settings: in vivo
Method: as §2, §3, §4, §5, §6, §7

Tygress tomato plants [5] = assay: Nutrient concentration of tomato fruits at 10 WAT, open field (Examples 7-10); settings: in vivo
Method: as §2, §3, §4, §5, §6, §7

Tygress tomato plants [6] = assay: Foliar nutrient concentration at 7 WAT, greenhouse tomato spring 2009 (Examples 13-15); settings: 7 WAT (1 week after treatment)
Method: (§8) The following experiments were performed in a green house during the spring of 2009 at GCREC, Balm, University of Florida. Crop set-up, procedures and variables were as follows.
(§9) Transplants of ‘Tygress’ tomato plants were planted in 2-gallon pots filled with commercial planting medium with nutrient concentration of Fe, Zn, Mn, Cu being negligible and insufficient for crop growth. Irrigation and non-micronutrient fertilizer were provided daily through microsprinklers at recommended rates for tomato production in Florida. No pesticides were used. Treatments were as described in Tables 42, 43, and 44 below. BIOX-Cu was compared to Cu-sulfate, BIOX-EDC, and BIOX-O; and BIOX-Fe was compared to Fe-sulfate and BIOX-EDF. BIOX-MEZ is Ca-HMTBA.
(§10) Treatments were applied at 6 WAT (weeks after transplanting) using a water volume of 200 mL/plant. Deionized water was used for foliar applications. A non-ionic surfactant was added. Other nutrients were applied as appropriate under non-limiting conditions.
Foliar tissue nutrient analysis was performed at 3 WAT (i.e., 3 weeks before treatment) and 7 WAT (i.e., 1 weeks after treatment) on the non-applied newest leaves. The concentrations of N, P, K, Mg, Ca, B, Zn, Mn, Fe, and Cu in the foliar tissue were determined by a commercial laboratory. There were no significant differences between the foliar nutrient concentrations of any of the treatment groups prior to treatment.
(§11) Experimental design was a randomized complete block design with 6 replications. Data were analyzed using a general linear model, and means were separated using an LSD test at the 5% significance level.

Tygress tomato plants [7] = assay: Yields of tomato fruits, greenhouse spring 2009 (Examples 13-15); settings: BIOX-Cu at 0.46 and 0.55 lb/acre; Cu-sulfate at 0.8 lb/acre; BIOX-EDC at 0.4 lb/acre
Method: as §8, §9, §10
Marketable fruit were collected three times during the growing season, starting at 10 WAT (4 weeks after the initial treatment). Tomato fruit was graded as marketable and non-marketable. Marketable fruit was sized as extra-large, large, and medium. Non-marketable fruit were harvested and number and weight recorded but not sized.
as §11

Tygress tomato plants [8] = settings: BIOX-Cu at 0.46 and 0.55 lb/acre; Cu-sulfate at 0.8 lb/acre; BIOX-EDC at 0.4 lb/acre
Method: as §8, §9, §10
Toxicity of the treatments was assessed by rating foliar tissue using a visual scale, where 0=no injury and 10=plant death.
as §11

O=S(=O)([O-])[O-].[Cu+2] [BIOX-INC, copper sulfate]
Pepper toxicity (Aristotle bell pepper): 0 | Tomato toxicity (Florida-47 tomato): 0 | Foliar B concentration of tomato plants (Tygress tomato plants [1]): 40 ppm | Foliar Ca concentration of tomato plants (Tygress tomato plants [1]): 2.0% | Foliar Cu concentration of tomato plants (Tygress tomato plants [1]): 503 a ppm | Foliar Fe concentration of tomato plants (Tygress tomato plants [1]): 71 ppm | Foliar K concentration of tomato plants (Tygress tomato plants [1]): 5.3% | Foliar Mg concentration of tomato plants (Tygress tomato plants [1]): 0.60% | Foliar Mn concentration of tomato plants (Tygress tomato plants [1]): 208 ppm | Foliar N concentration of tomato plants (Tygress tomato plants [1]): 4.7% | Foliar P concentration of tomato plants (Tygress tomato plants [1]): 0.17% | Foliar Zn concentration of tomato plants (Tygress tomato plants [1]): 281 ppm | Foliar concentration of Cu of tomato plants compared to control, statement (Tygress tomato plants [1]): significant increase in the foliar concentration of Cu | Foliar B concentration of bell pepper plants [2]: 39 ppm | Foliar Ca concentration of bell pepper plants [2]: 2.0% | Foliar Cu concentration of bell pepper plants [2]: 503 a ppm | Foliar Fe concentration of bell pepper plants [2]: 71 ppm | Foliar K concentration of bell pepper plants [2]: 5.3% | Foliar Mg concentration of bell pepper plants [2]: 0.60% | Foliar Mn concentration of bell pepper plants [2]: 208 ppm | Foliar N concentration of bell pepper plants [2]: 4.7% | Foliar P concentration of bell pepper plants [2]: 0.17% | Foliar Zn concentration of bell pepper plants [2]: 281 ppm | Foliar concentration of Cu of bell pepper plants compared to control, statement [2]: significant increase in the foliar concentration of Cu | Marketable yield, Tomato (Tygress tomato plants [3]): 17.4 a ton/acre | Tomato marketable yield compared to control, statement (Tygress tomato plants [3]): significantly increased tomato marketable yields relative to control; also recorded: significantly higher marketable yield of tomato fruits compared to control | Marketable yield, Bell Pepper [4]: 7.3 ton/acre | B concentration of tomato fruits (Tygress tomato plants [5]): 21 ppm | Ca concentration of tomato fruits (Tygress tomato plants [5]): 0.2% | Cu concentration of tomato fruits (Tygress tomato plants [5]): 22 ppm | Fe concentration of tomato fruits (Tygress tomato plants [5]): 85 ppm | K concentration of tomato fruits (Tygress tomato plants [5]): 8.0% | Mg concentration of tomato fruits (Tygress tomato plants [5]): 0.38% | Mn concentration of tomato fruits (Tygress tomato plants [5]): 42 ppm | N concentration of tomato fruits (Tygress tomato plants [5]): 4.4% | P concentration of tomato fruits (Tygress tomato plants [5]): 0.68% | Zn concentration of tomato fruits (Tygress tomato plants [5]): 332 ppm | Copper concentrations in tomato leaves, statement (Tygress tomato plants [6]): highest leaf copper concentrations | Marketable tomato yields compared to non-treated control, statement (Tygress tomato plants [7]): did not alter marketable yields relative to the non-treated control | Toxicity compared to non-treated control plants, statement (Tygress tomato plants [8]): increased levels of toxicity

From patent US20110098177A1, “METHODS AND COMPOSITIONS OF PLANT MICRONUTRIENTS” (NOVUS INTERNATIONAL INC., priority 2006, published 2011)
